Source: article PMC10227015, “From a drug repositioning to a structure-based drug design approach to tackle acute lymphoblastic leukemia” (Nature Communications, 2023)
Like-named read-outs stand apart in the source and are kept apart here.

Experiments:
dCK-C3S-S74E [1] = assay: Enzymatic assay (PK/LDH coupled), dC phosphorylation by dCK in the presence of UTP; assay type: biochemical, human; details: for effect on dCK enzymatic activity, activation versus inhibition: UTP 1 mM, dC 200 µM; for ENZYMATIC ASSAY (Activation/Inhibition): presence of UTP
dCK-C3S-S74E, sequence (P27707 whole entry S74E, form open): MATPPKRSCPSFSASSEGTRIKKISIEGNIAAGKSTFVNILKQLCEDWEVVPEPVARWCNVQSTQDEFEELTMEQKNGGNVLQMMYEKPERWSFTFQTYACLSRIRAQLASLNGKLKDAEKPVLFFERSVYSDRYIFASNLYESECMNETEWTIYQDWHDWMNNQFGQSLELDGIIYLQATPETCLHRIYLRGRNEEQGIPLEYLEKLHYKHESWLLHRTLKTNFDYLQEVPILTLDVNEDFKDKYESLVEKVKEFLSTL
How it was run: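 Activation versus inhibition was judged with 1 mM UTP, 200 µM dC and 2 μM dCK-C3S-S74E, using pyruvate kinase/lactate dehydrogenase coupling that tracks NADH fluorescence decrease at 460 nm. Buffer was HEPES pH 7.5 with MgCl2, KCl and DTT. Rates came from linear slopes, expressed relative to compound-free control.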

CCRF-CEM cell line = assay: dCK cellular assay: CCRF-CEM proliferation in the presence of dT and dC; assay type: cell-based, human; details: Homo sapiens, CCRF-CEM; for activity at 0.078 µM: 78 nM; for activity at 0.156 µM: 156 nM; for activity at 0.312 µM: 312 nM; for activity at 0.625 µM: 625 nM; for activity at 1.25 µM: 1250 nM; for activity at 2.5 µM: 2500 nM; for activity at 5 µM: 5000 nM; for activity at 20 µM: 20000 nM
How it was run: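 Two conditions in T-ALL CCRF-CEM cells: compound only, and compound with thymidine blocking de novo synthesis and deoxycytidine rescuing via dCK. Metabolic dye fluorescence (560/590 nm) gives % proliferation vs DMSO; IC50s, mean ± SD of at least three triplicate runs.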

dCK-C3S-S74E [2] = assay: Thermal shift assay (TSA); details: for ΔTm, dCK thermal stabilization (TSA): 5 μM protein, 50 μM compound; for Thermal Shift Assay Mean (ΔTm (º)): Figure 1b; for THERMAL SHIFT ASSAY +Tm (°): mean ± SD
[3] = dT 200 µM + dC 1 µM, read-out: Cell proliferation of the CCRF-CEM cell line Mean (% prolif)
[4] = 10000 nM, dT 200 µM + dC 1 µM, read-out: Cell proliferation of the CCRF-CEM cell line Mean (% prolif)
[5] = compound 10 µM + dT 111 µM + dC 1 µM, 72 h, read-out: Cell proliferation of the CCRF-CEM cell line Mean (% prolif)
[6] = read-out: dCK CELLULAR ASSAY IC50 (nM), 200 µM dT and 1 µM dC, read-out: dCK […] ASSAY IC50
[7] = dT 200 µM + dC 1 µM, 72 h, read-out: IC50 cell proliferation

Row | Enzymatic activity (UTP) Mean (% activity) (dCK-C3S-S74E [1]; 0.156 µM) | Enzymatic activity (UTP) Mean (% activity) (dCK-C3S-S74E [1]; 0.31 µM) | Enzymatic activity (UTP) Mean (% activity) (dCK-C3S-S74E [1]; 0.625 µM) | Enzymatic activity (UTP) Mean (% activity) (dCK-C3S-S74E [1]; 1.25 µM) | Enzymatic activity (UTP) Mean (% activity) (dCK-C3S-S74E [1]; 2.5 µM) | Enzymatic activity (UTP) Mean (% activity) (dCK-C3S-S74E [1]; 5 µM) | Enzymatic activity (UTP) Mean (% activity) (dCK-C3S-S74E [1]; 10 µM) | Enzymatic activity (UTP) Mean (% activity) (dCK-C3S-S74E [1]; 20 µM) | Enzymatic activity (UTP) Mean (% activity) (dCK-C3S-S74E [1]; 40 µM) | Enzymatic activity (UTP) Mean (% activity) (dCK-C3S-S74E [1]; 80 µM) | Enzymatic activity (UTP) Mean (% activity) (dCK-C3S-S74E [1]; 160 µM) | effect on dCK enzymatic activity, activation versus inhibition (dCK-C3S-S74E [1]) | ENZYMATIC ASSAY (Activation/Inhibition) (dCK-C3S-S74E [1]) | Compound | activity at 0.078 µM (CCRF-CEM cell line; [3]) | activity at 0.156 µM (CCRF-CEM cell line; [3]) | activity at 0.312 µM (CCRF-CEM cell line; [3]) | activity at 0.625 µM (CCRF-CEM cell line; [3]) | activity at 1.25 µM (CCRF-CEM cell line; [3]) | activity at 2.5 µM (CCRF-CEM cell line; [3]) | activity at 5 µM (CCRF-CEM cell line; [3]) | further results
1 | 119.43% | 140.85% | 200.29% | 208.47% | 211.72% | 205.54% | 84.19% | 45.49% | 12.08% | 5.40% | 0.67% | shifted from activators to inhibitors | A/I | Cc1ccc(NC(=O)c2ccc(CN3CCN(C)CC3)cc2)cc1Nc1nc(-c2nccc(N)n2)cs1 [dCKi1] | 88.7% | 91% | 94.4% | 93.2% | 98.2% | 91.8% | 67.7% | Enzymatic activity (UTP) Mean (% activity) (dCK-C3S-S74E [1]; 0.078 µM): 104.73%; activity at 0.039 µM (CCRF-CEM cell line; 39 nM, dT 200 µM + dC 1 µM, read-out: Cell proliferation of the CCRF-CEM cell line Mean (% prolif)): 94.3%; activity at 10 µM (CCRF-CEM cell line; [4]): 31%; activity at 20 µM (CCRF-CEM cell line; [3]): 8.1%; activity at 10 µM (CCRF-CEM cell line; [5]): 47%; IC50 (CCRF-CEM cell line; [6]): 6950 ± 2530 nM; IC50 (CCRF-CEM cell line; [7]): 6900 nM; ΔTm, dCK thermal stabilization (TSA) (dCK-C3S-S74E [2]): 14.3 °C; Thermal Shift Assay Mean (ΔTm (º)) (dCK-C3S-S74E [2]): 14.3 º; THERMAL SHIFT ASSAY +Tm (°) (dCK-C3S-S74E [2]): 14.3 ± 0.4 °
2 | 93.59% | 84.70% | 90.40% | 99.44% | 135.24% | 164.65% | 178.80% | 174.40% | 165.28% | 150.42% | 147.75% | shifted from activators to inhibitors | A/I | Cc1ccc(NC(=O)c2ccc(CN3CCN(C)CC3)cc2)cc1Nc1nc(-c2nc(N)cc(N)n2)cs1 [dCKi2, N-(3-((4-(4,6-diaminopyrimidin-2-yl)thiazol-2-yl)amino)-4-methylphenyl)-4-((4-methylpiperazin-1-yl)methyl)benzamide] | 95.9% | 91.9% | 100% | 95.6% | 94.5% | 86% | 58.8% | activity at 10 µM (CCRF-CEM cell line; [4]): 29.6%; activity at 20 µM (CCRF-CEM cell line; [3]): 14%; activity at 40 µM (CCRF-CEM cell line; 40000 nM, dT 200 µM + dC 1 µM, read-out: Cell proliferation of the CCRF-CEM cell line Mean (% prolif)): 6.8%; activity at 10 µM (CCRF-CEM cell line; [5]): 42.3%; IC50 (CCRF-CEM cell line; [6]): 8910 ± 3340 nM; IC50 (CCRF-CEM cell line; [7]): 8900 nM; ΔTm, dCK thermal stabilization (TSA) (dCK-C3S-S74E [2]): 17.3 °C; Thermal Shift Assay Mean (ΔTm (º)) (dCK-C3S-S74E [2]): 17.3 º; THERMAL SHIFT ASSAY +Tm (°) (dCK-C3S-S74E [2]): 17.3 ± 0.2 °
